Consider 20 compounds from PMC13126685, “Targeting Highly Reactive Oxygen Species (hROS) for Prodrug Activation through a Cascade Reaction with Kinetic Tunability (CReKT) to Effect Linker Cleavage” (Journal of Medicinal Chemistry, 2026).

The nature of data set [1]: Cyclization kinetics of model thioethers and sulfoxides by RP-HPLC. The format is physicochemical. As to conditions: for half-life at 200 μM: PBS, pH 7.4, 200 μM in PBS/DMSO (98:2); for half-life at 200 μM / cyclization, result in words: 37 °C, pH 7.4; for cyclization, result in words: 200 μM in PBS/DMSO (98:2). The protocol: The basic premise of this ROS-sensitive prodrug strategy relies on two properties: (1) the substantial rate enhancement of the cyclization/condensation reaction after oxidation and (2) the ability for ROS to oxidize a thioether to sulfoxide rapidly, which we have recently extensively studied. To examine the first aspect, we studied the rate of cyclization of the thioethers (3a–3g) and sulfoxides (4a–4g) using RP-HPLC (Figure and Figures S1–S5). Briefly, 200 μM thioether or sulfoxide was incubated in PBS (containing 2% DMSO) at 37 °C. Aliquots of the reaction solution were sampled at designated time points for examination of the reaction kinetic profiles. As representative examples, the cases of thioether-sulfoxide pairs 3 a /4a (EWG: −CN), 3 e /4e (EWG: −CONH2), and 3 f /4f (EWG: −CONHC3H7) are described (Figure ). […] As a subsequent step, we were interested in the ability to tune the reaction kinetics and the magnitude of the reaction rate separation between the thioether and sulfoxide analogs. We are especially interested in searching for systems that offer a high degree of separation in reaction kinetics before and after thioether oxidation.
First, 10 mM stock solutions of compound 3 or 4 were prepared in DMSO. […] The resultant solution was kept at 37 °C. […] Either gradient method A or B was used to monitor the reaction.

Data set [2] in a line: ROS-triggered drug release from drug conjugates after oxidation by NaOCl (RP-HPLC). As to conditions: 100 μM conjugate, 150 μM NaOCl, 37 °C, pH 7.4, 20 min.
Procedure: Specifically, to study drug release after oxidation by NaOCl, 100 μM of Flox-CReKT 12a was incubated with 150 μM sodium hypochlorite (NaOCl) in PBS (containing 1% DMF) under near-physiological conditions (Figure ). The reaction progress was monitored by RP-HPLC, where 20 μL of the incubated mixture was sampled and analyzed at designated time points (Figure ). Drug release t 1/2 was calculated by plotting the peak area of Flox released against time (Figure a). […] Specifically, oxidation of Flox-CReKT conjugate 12a is designed to lead to sulfoxide analogue 13a, which undergoes cyclization to release the Flox with the formation of the cyclized byproduct (6a) (Figure ).
We used the same protocol as discussed in the previous section of ROS-sensitive drug release to study the effect of pH. […] Furthermore, we used either a citrate- or PBS-based buffer to test the effect of pH on the oxidation step.
To monitor the drug release in the presence of ROS, drug conjugate 12 was incubated with ROS under near-physiological conditions. First, a 10 mM stock solution of the drug conjugate was prepared in DMF. Then, 10 μL was taken from the stock solution and added to 975 μL of the buffer. Then, 15 μL of 10 mM ROS solution was added to the solution. The resultant solution was kept at 37 °C. At different time points, 20 μL was taken from the reaction mixture and injected into HPLC.
The nature of data set [3]: Drug release / stability of drug conjugates in buffer in the absence of ROS (RP-HPLC). The format is physicochemical. As to conditions: 100 μM, 37 °C. The protocol:
Cellular compartments can have slightly different pH.
To monitor drug release in the absence of ROS, the same procedure of the model compound was followed with a small change of stock solution solvent. For drug conjugates 12, DMF was used to prepare the stock solution. Briefly, a 10 mM stock solution of the drug-conjugated compound was prepared in DMF. […] The resultant solution was kept at 37 °C.

The test system of a further data set is RS4;11 cells. As to the kind of experiment: Cytotoxicity, CCK-8 assay. The format is cell-based. As to conditions: Homo sapiens, RS4-11, 72 h. The protocol:
To conduct this set of experiments, a 96-well plate (8 × 12) was used. First, RS4;11 cells were seeded in a 96-well plate 1 day before the experiment (RPMI-1640, containing 10% FBS and 1% PNS). Then, the cells were incubated with different concentrations of compounds with or without the stimulant. Specifically, the final concentrations of compounds were 0.1 pM–100 μM with or without H2O2 (25 μM) stimulation. The plate containing cells were incubated for 72 h at 37 °C with 5% CO2. The cell viability was tested using the CCK-8 assay. Specifically, after 72 h of incubation, 10 μL of the CCK-8 assay reagent was added to each well. Then, the plate was further incubated for 2 h. After that, the plate was gently shaken for 1 min, and then absorbance was recorded at 450 nm. The percentage cell viability was calculated using the following formula: cell viability (%) = ((A 450 of treated wells – A 450 of control wells)/(A 450 of no treatment wells – A 450 of control wells)) × 100. The experiment was conducted in triplicates.
On the technique in general: Tetrazolium assays rely on reduction of a dye to a coloured formazan, in cell work by metabolically active cells.

On the set-up of data set [4]: method as in number not shown in text. Particulars: ref number not shown in text; cited from earlier work.
A further data set has as its system RAW264.7 cells. Description: Intracellular ROS detection using DCFH-DA fluorescent probe. The format is cell-based. Particulars: 10 μM DCFH-DA, PMA 2 μM or LPS 2 μg/mL, 4 h, λex 495 nm, λem 530 nm.
Setting [5] is: read-out: t 1/2 (thioether) (3a–g), cyclization (converted).
Setting [6] is: read-out: t 1/2 (sulfoxide) (4a–g), cyclization (converted).

Where two headings read alike, the source gives them in different places. Where only a bound is given, the exact number is not on record here.

Source text for RAW264.7 cells: To correlate the intracellular drug release, we also studied intracellular ROS formation upon stimulation with LPS or PMA or using RAW264.7 cells. We chose one of the widely used fluorescent probes, DCFH-DA, which is the diester version of DCFH capable of cellular penetration. − Subsequent hydrolysis of the ester groups would lead to DCFH, which is not readily cell membrane permeable and thus is trapped intracellularly. […] Similar to the intracellular payload release studies, we used RAW264.7 cells for intracellular ROS determination work. Briefly, 10 μM of DCFH-DA was incubated with and without LPS/PMA. Specifically, three groups were tested with the first being 10 μM of DCFH-DA only, the second being 10 μM of DCFH-DA and 2 μg/mL of LPS, and the third being 10 μM of DCFH-DA and 2 μM of PMA. The cells were incubated for 4 h before fluorescence measurements using a plate reader (λex 495 nm and λem 530 nm). […] Working solutions were prepared by dilution in DMEM (Fluorobright DMEM, containing 1% PNS). DCFH-DA (10 μM) was prepared by adding 4 μL of 10 mM DCFH-DA in 3.996 mL of media. DCFH-DA (10 μM) and LPS (2 μg/mL) were prepared by adding 4 μL of 10 mM DCFH-DA and 4 μL of 2 μg/μL of LPS in 3.994 mL of media. […] Subsequently, the plate was incubated 4 h before fluorescence measurements using a plate reader (λex 495 nm and λem 530 nm). […]

Regarding `COC(=O)c1ccccc1SCC#N` [3a, Methyl 2-((Cyanomethyl)thio)benzoate], the half-life at 200 μM in data set [1] (setting [5]) was 5 h.
For the compound `COC(=O)c1ccccc1SCC(F)(F)F` [3b, Methyl 2-((2,2,2-Trifluoroethyl)thio)benzoate], the “cyclization, result in words” value in data set [1] is on record as “did not lead to cyclization”. Moreover, in data set [1] (setting [5]), the half-life at 200 μM was over 48 h.
On to `COC(=O)c1ccccc1SCC(=O)C(C)(C)C` [3c, Methyl 2-((3,3-Dimethyl-2-oxobutyl)thio)benzoate], for which the half-life at 200 μM in data set [1] (setting [5]) was 10 h.
Same read-out and setting: the result for `COC(=O)CSc1ccccc1C(=O)OC` [3d, Methyl 2-((2-Methoxy-2-oxoethyl)thio)benzoate] reads 6 h.
Still for that read-out and setting: next, `COC(=O)c1ccccc1SCC(N)=O` [3e, Methyl 2-((2-Amino-2-oxoethyl)thio)benzoate]: over 48 h.
With `CCCNC(=O)CSc1ccccc1C(=O)OC` [3f, Methyl 2-((2-Oxo-2-(propylamino)ethyl)thio)benzoate], the “cyclization, result in words” value in data set [1] was “no cyclization”. Besides, the “cyclization after 5 days, result in words” value in data set [1] (near-physiological conditions, 5 days) is reported as “no significant cyclization”.
For the compound `COC(=O)c1ccccc1SCC(=O)O` [3g, 2-((2-(Methoxycarbonyl)phenyl)thio)acetic Acid], in data set [1], the “cyclization, result in words” value is reported as “cyclization did not happen”. Besides, in data set [1] (setting [5]), the half-life at 200 μM was over 48 h.
In the case of `COC(=O)c1ccccc1[S+]([O-])CC#N` (stereo not drawn) [4a, Methyl 2-((Cyanomethyl)sulfinyl)benzoate], in data set [1] (setting [6]), the half-life at 200 μM is 0.667 h.
On to `COC(=O)c1ccccc1[S+]([O-])CC(F)(F)F` (stereo not drawn) [4b, Methyl 2-((2,2,2-Trifluoroethyl)sulfiny)benzoate], for which the “cyclization, result in words” value in data set [1] was “did not lead to cyclization”. Also, the half-life at 200 μM in data set [1] (setting [6]) was over 48 h.
As for `COC(=O)c1ccccc1[S+]([O-])CC(=O)C(C)(C)C` (stereo not drawn) [4c, Methyl 2-((3,3-Dimethyl-2-oxobutyl)sulfinyl)benzoate], in data set [1] (setting [6]), the half-life at 200 μM is 1.5 h.
The same measure, in the same setting: next, `COC(=O)C[S+]([O-])c1ccccc1C(=O)OC` (stereo not drawn) [4d, Methyl 2-((2-Methoxy-2-oxoethyl)sulfinyl)benzoate]: 0.667 h.
Still for that read-out and setting: the result for `COC(=O)c1ccccc1[S+]([O-])CC(N)=O` (stereo not drawn) [4e, Methyl 2-((2-Amino-2-oxoethyl)sulfinyl)benzoate] reads about 2.17 h; that for `CCCNC(=O)C[S+]([O-])c1ccccc1C(=O)OC` (stereo not drawn) [4f, Methyl 2-((2-Oxo-2-(propylamino)ethyl)sulfinyl)benzoate], 7.5 h.
In the case of `COC(=O)c1ccccc1[S+]([O-])CC(=O)O` (stereo not drawn) [4g, 2-((2-(Methoxycarbonyl)phenyl)sulfinyl)acetic Acid], the “cyclization, result in words” value in data set [1] was “cyclization did not happen”. Besides, in data set [1] (setting [6]), the half-life at 200 μM was over 48 h.
As for `N#CCSc1ccccc1C(=O)OC1CC(n2cc(F)c(=O)[nH]c2=O)OC1CO` [12a, (2S,3R,5S)-5-(5-Fluoro-2,4-dioxo-3,4-dihydropyrimidin-1(2H)-yl)-2-(hydroxymethyl)tetrahydrofuran-3-yl 2-((Cyanomethyl)thio)benzoate], in data set [2], the “Flox released at the 20 min time point” value turned out to be 90%.
The term IC50 denotes the concentration that gives 50% inhibition. Turning to `CCCNC(=O)CSc1ccccc1C(=O)O[C@H]1C[C@H](n2cc(F)c(=O)[nH]c2=O)O[C@@H]1CO` [12f, (2R,3S,5R)-5-(5-Fluoro-2,4-dioxo-3,4-dihydropyrimidin-1(2H)-yl)-2-(hydroxymethyl)tetrahydrofuran-3-yl 2-((2-Oxo-2-(propylamino)ethyl)thio)benzoate], the “stability in the absence of ROS for up to 72 h” value in data set [3] (pH 7.4, 72 h) is “remained intact”. Besides, the IC50 in the data set with RS4;11 cells (+ 25 μM H2O2) worked out at 0.202 ± 0.003 µM; with RS4;11 cells (without H2O2), 0.197 ± 0.003 µM.
For `CCc1c2c(nc3ccc(OC(=O)c4ccccc4SCC(N)=O)cc13)-c1cc3c(c(=O)n1C2)COC(=O)[C@]3(O)CC` [14e, (S)-4,11-Diethyl-4-hydroxy-3,14-dioxo-3,4,12,14-tetrahydro-1H-pyrano[3′,4’:6,7]indolizino[1,2-b]quinolin-9-yl 2-((2-Amino-2-oxoethyl)thio)benzoate], in data set [3] (pH 7.4, 24 h), the “SN-38 released within 24 h without oxidation” value is “about 25%”.
In the case of `O=C(O)c1ccccc1C1c2cc(Cl)c(O)cc2Oc2cc(O)c(Cl)cc21` [DCFH], the “second-order rate constant of reaction with hypochlorite” value in data set [4] was 580 ± 18 M^–1 s^–1.
Turning to `CCCCCCCCCCCCCC(=O)O[C@@H]1[C@@H](C)[C@@]2(O)[C@@H](C=C(CO)C[C@]3(O)C(=O)C(C)=C[C@@H]23)[C@@H]2C(C)(C)[C@]12OC(C)=O` [PMA, phorbol 12-myristate 13-acetate], in the data set on RAW264.7 cells, the “fluorescence intensity of DCFH-DA probe upon stimulation (intracellular ROS)” value is given as “significantly higher fluorescence intensity”.
Same read-out and setting: the result for lipopolysaccharides [LPS] reads “marginal increase”.
